Source: US20240424051A1, “COMPOSITION FOR TREATING […] OS[…] MECHANISM PROMOTING FORMATION OF MUSCLE FIBERS OR INHIBITING OSTEOCLASTOGENESIS, […]-L-PHENYLALANYL-L-PROLINE DIPEPTIDES” (CELLBION CO., LTD, priority 2021, published 2024)

What was measured:
[1] = test system: trabecular bone of mouse femur; experiment: Micro-CT analysis of trabecular bone of femur after free drinking of cFP; type: in vivo; details: cFP in drinking water (free drinking), FIG. 4
myoblasts = experiment: Differentiation of myoblasts and LADD staining (muscle fiber formation experiment); type: cell-based; details: mouse myoblasts, LADD staining, compared to vehicle, FIG. 1
Text: Muscle growth is due to the formation of muscle fibers according to the binding between individual myoblasts. Therefore, the improvement of muscle growth can be estimated through the degree of muscle fiber formation in the environment that induced the binding of myoblasts. Accordingly, myoblasts were isolated from the muscle tissue of a subject and cultured, and whether muscle fibers were formed using the isolated myoblasts was observed.
The formation of muscle fibers can be evaluated by measuring the number of myoblasts that form muscle fibers and the thickness of the formed muscle fibers. To this end, a high-magnification optical microscope was used to identify the nucleus in the muscle fiber through muscle fiber staining. The thickness of the muscle fiber was also measured.
The muscle tissue was minced with a scalpel for 5 minutes. The minced muscle solution was incubated at 37° C. for 60 minutes and then centrifuged at 1500 rpm for 5 minutes. The obtained cells were suspended in Ham's F-10 medium containing 20% heat-inactivated horse serum and 50 units/ml of penicillin in the presence of basic FGF (2.5 ng/ml), and then plated on a cell culture dish for 1 hour without gelatin coating. After 1 hour, the suspended cells were transferred to a secondary cell culture dish without gelatin coating and cultured for 1 hour. […]

muscle mass of mice = experiment: Muscle collection and weighing after oral gavage of cFP; type: in vivo, mouse; details: male C57BL/6J mice, oral gavage every 24 hours, compared to the control group, FIG. 3
Method: According to an embodiment of the present invention, the increase in muscle weight and bone mass by oral administration of cyclo-L-phenylalanyl-L-proline (cFP) was measured. Muscle weight was measured by separating the muscles of the mouse according to anatomical muscle classification. In addition, trabecular bone analysis on the femur of the mouse was performed using high-resolution micro-CT (SMX-90CT system). Based on the growth plate of the femur, the lower part of the 1 mm was the starting point of the analysis, and the analysis was conducted from the starting point to 1.5 mm below the bone. Each indicator means as follows. bone volume/total bone volume (BV/TV, %), bone surface/trabecular bone volume (BS/BV, 1/mm), trabecular thickness (Tb. Th, mm), trabecular number (Tb.N, 1/mm), trabecular separation (Tb. Sp, mm).
Animal studies were conducted in accordance with the guidelines for animal research. All experimental procedures were approved by the Animal Care and Use Committee of Seoul National University Animal Hospital. Male C57BL/6J mice at 4 or 6 weeks of age were purchased from Orient Bio Inc. (Seongnam, Korea) and housed in a specific pathogen-free (SPF) animal facility with controlled temperature (22° C.), humidity (55%), and a 12-hour light-dark cycle. All animals were provided with a free feeding and drinking system. […]

O=C1NC(Cc2ccccc2)C(=O)N2CCCC12 [cFP, cyclo-L-phenylalanyl-L-proline]
BV/TV (bone volume/total bone volume) [1]: significantly high
Tb. N (trabecular number) [1]: significantly high
Tb. Th (trabecular thickness) [1]: significantly high
fusion of myoblasts (muscle fiber formation; diameter of myotube and number of nuclei of myotube) (myoblasts): promoted the fusion of myoblasts
muscle mass of the mice (muscle mass of mice): increased
